The values that follow come from US20070060636A1, “High enantiomeric purity dexanabinol for pharmaceutical compositions” (priority 2002, published 2007).

Where a name gives a salt, the structure may show the parent alone. Read-outs that look alike come from different tables or passages of the source.

For series [1] the following is noted: cited from earlier work.
Series [2] has as its system rats. The note with it: 10 μg/kg i.v., cited from earlier work.
Series [3] in a line: threshold for psychomimetic effects in humans. The note with it: worked out from THC threshold and 200 fold psychoactivity. The series is classed as in vivo. The text has this: Psychoactive cannabinoids have a variety of pharmacological effects that are evoked through interactions with the CB1 receptors predominantly expressed in the brain. The central nervous system effects that occur after in vivo exposure to HU-210 include euphoria, hypokinesia, hypothermia, anti-nociception, and catalepsy. Hypokinesia, hypothermia, anti-nociception, and catalepsy are the activities that form the basis of the “Tetrad assay” of CB1 mediated activity. […] The threshold for psychomimetic effects of oral THC in humans is in the range of 10-15 mg THC in an adult, i.e from about 0.16 to about 0.25 mg THC/kg body weight for adults of approximately 60 kg (“Cannabis and Cannabinoids, pharmacology, toxicology and therapeutic potential” edited by Grotenhermen and Russo, the Haworth Integrative Healing Press; Chapter 31 pp 345 and 351).

For the next series, the system named is rat model. The note with it: cited from earlier work.
In series [4] the test system is rats. The note with it: conscious rats; cited from earlier work.
The conditions of series [5]: i.v.; cited from earlier work.
For series [6] the following is noted: oral, adult; cited from earlier work.
For series [7], the system named is intra-ocular pressure (IOP). As to the kind of experiment: IOP lowering after topical administration in normotensive rabbits. The note with it: commercially available drugs, topical. The series is classed as in vivo, New Zealand White albino rabbits. The protocol:
New Zealand White albino rabbits weighing 2-2.5 kg were acclimatized in our animal facility for at least a week prior to IOP measurements. Drug, saline and blank-vehicle groups (n=8-12 animals per group) were included. In most experiments, 50 μl drops were applied at 09:00 and measurements were taken 1 hour, 3, 5, and 7 hours later. Baseline IOP was individualized for each animal and time point prior to drug testing. IOP was measured by a Digilab Pneumatonometer, Model 30R. ΔIOP was calculated by subtracting the baseline IOP from IOP value measured after drug application at a corresponding time point. Maximal ΔIOP and area under the ΔIOP×hours curve (AUC) were calculated and averaged for each group. Data of IOP, AUC, blood pressure and toxicity were analyzed by the Wilcoxon-Rank test.

Regarding `CCCCCCC(C)(C)c1cc(O)c2c(c1)OC(C)(C)[C@@H]1CC=C(CO)C[C@@H]21` [HU-210, 1,1-dimethylheptyl-(3R,4R)-7-hydroxy-Δ^6-tetrahydrocannabinol], the “psychoactivity in animals relative to Δ^9-THC” value in series [1] (in vivo) is “approximately 200 fold”. In series [1] (series of animal tests), the “psychoactivity compared with HU-211” value is reported as “a thousand times more psychoactive” and the “psychoactivity compared with Δ^9-THC” value is reported as “a hundred times more psychoactive”. In the series on rats [2], the “reduction of mean blood pressure” value is reported as 57±5 mm Hg and the “systemic vascular resistance index” value is given as “without significantly affecting”. Moreover, the “cardiac index after drug” value in the series with rats [2] (from 37±1) is reported as 23±1 mL/min/100 g. The “maximal tolerated dose (theoretical)” value in series [3] is “less than 1.25 μg/kg body weight”. The PaCO2 after drug with rat model (from 32±0.7) was 45.7±1.6 mmHg. In addition, the “mean arterial blood pressure after drug” value in the series on rat model (from 142±1) was 105±6 mm Hg. For the same compound, the “heart rate after drug” value with rat model (from 484±6) was 232±18 beats/min. For the same compound, in the series on rat model (frontal cortex), the “change in cerebral glucose use” value is −19%. The “cerebral glucose use after drug” value in the series with rat model (frontal cortex, from 69±1) is recorded as 55±3 μmol.100 g−1.min-1. In addition, the “change in cerebral glucose use” value with rat model (occipital cortex) is −31%. Moreover, the “cerebral glucose use after drug” value with rat model (occipital cortex, from 60±1) is reported as 41±2 μmol.100 g−1.min−1. Besides, in the series on rats [4], the “bradycardia still present after drug administration” value is at least 8 h and the “duration of hypotensive effects” value was 2 h. For the same compound, the “lowest administered dose at which hypotensive effect is detected” value in series [5] is 1 µg/kg.
Turning to `CCCCCc1cc(O)c2c(c1)OC(C)(C)[C@@H]1CCC(C)=C[C@@H]21` [THC, Δ^9-tetrahydrocannabinol], in series [6], the “threshold for psychomimetic effects” value is 10 to 15 mg.
Consider `CC(C)(C)NC[C@H](O)COc1nsnc1N1CCOCC1` [Timolol, reference compound], for which the “AUC (ΔIOP×hours)” value in series [7] was determined as 7.3±3.0 mmHg×Hours.
The same measure, in the same setting: to `CC(C)(C)NC[C@H](O)COc1cccc2c1CCCC2=O` [levobunolol HCl, reference compound] belongs 13.3±1.5 mmHg×Hours.
